US4000151A, “Triazolyl benzophenone compounds” (priority 1975, dated 1976)

Experiments:
Assay type in all cases: in vivo
[1] = tested on: mice; test: Chimney test (mice back up and out of a vertical glass cylinder within 30 seconds); conditions: Mus musculus
Method: (§1) Sedative effects of 8-chloro-1-methyl-6-phenyl-4H-s-triazolo[ 4,3-a][ 1,4]benzodiazepine (a final product conforming to formula VII) are shown by the following tests in mice: […]
Chimney test: [Med. Exp. 4, 145 (1961)]: The effective intraperitoneal dosage for 50% of the mice (ED50) is 0.09 mg./kg.; the oral ED50 is 0.6 mg./kg. The test determines the ability of mice to back up and out of a vertical glass cylinder within 30 seconds. At the effective dosage, 50% of the mice failed doing it.

[2] = tested on: mice; test: Pedestal test (mice staying on the pedestal for more than 1 minute); conditions: Mus musculus; Table II, route not given
Method: as §1
Pedestal test; The untreated mouse leaves the pedestal in less than a minute to climb back to the floor of the standard mouse box. Tranquilized mice will stay on the pedestal for more than 1 minute. The ED50 (oral administration) is 0.9 mg./kg.

[3] = tested on: mice; test: Dish test (mice remaining in Petri dish for more than 3 minutes); conditions: Mus musculus; Table II, route not given
Method: as §1
Dish test: Mice in Petri dishes (10 cm. diameter, 5 cm. high, partially embedded in wood shavings), climb out in a very short time, when not treated. Mice remaining in the dish for more than 3 minutes indicates tranquilization. ED50 equals the dose of the test compound at which 50% of the mice remain in the dish.

[4] = tested on: mice; test: Nicotine antagonism test; conditions: Mus musculus; Table II, route not given
Method: Nicotine antagonism test: Mice in a group of 6 are injected with the test compound (8-chloro-1-methyl-6-phenyl-4H-s-triazolo[ 4,3-a][ 1,4]benzodiazepine). Thirty minutes later the mice, including control (untreated) mice are injected with nicotine salicylate (2 mg./kg.). The control mice show overstimulation, i.e., (1) running convulsions followed by (2) tonic extensor fits, followed by (3) death.

`Cc1nncn1-c1ccc(Cl)cc1C(=O)c1ccccc1` [5-Chloro-2-(3-methyl-4H-1,2,4-triazol-4-yl)benzophenone] was tested, and the ED50 ([1]; Table II, route not given, read-out: ED50 Ch) was 28 mg/kg, the ED50 [2] was 20 mg/kg and the ED50 [3] was 23 mg/kg. It also gave an ED50 [4] of 20 mg/kg.

With `Cc1nnc2n1-c1ccc(Cl)cc1C(c1ccccc1)=NC2` [8-Chloro-1-methyl-6-phenyl-4H-s-triazolo[4,3-a][1,4]benzodiazepine] the ED50 ([1]; mice, oral, read-out: oral ED50, chimney test) was 0.6 mg/kg.
